Assay results published in paper PMC10634346 (Cancer Research Communications, 2023).

Experiments:
SU-DHL-10 xenografts = experiment: SU-DHL-10 xenograft antitumor efficacy; type: in vivo, C.B-17 SCID mice
Experimental: A total of 10 × 10^6 SU-DHL-10 cells were inoculated subcutaneously into 6–8 weeks old female C.B-17 SCID mice (Iffa Credo, Brussels). The mice were randomized to treatment groups at a tumor volume of 63–104 mm^3 and treated (intravenously, once weekly) with 10 mg/kg enitociclib (60% PEG400, 10% ethanol, water), 15 mg/kg enitociclib (30% PEG400, 10% ethanol, water), or corresponding vehicle treatments. Mice were around 10–12 weeks of age at the start of study. All animal experiments were performed under the national animal welfare laws of Germany and approved by the local authorities.
Statistical analyses were performed using GraphPad Prism v9 (GraphPad Software). For tumor volumes in SU-DHL-10 xenograft model, statistics were performed using unpaired t test in comparison with the corresponding vehicle treatment. The obtained P values were adjusted for all analyses. Results were considered statistically significant when P < 0.05.

[1] = system: SU-DHL-4 and SU-DHL-10 cell lines; experiment: RNA-seq differential gene expression in DLBCL cell lines; type: cell-based, human
Experimental: Evaluation of the pharmacodynamic extent and duration of CDK9 inhibition were performed in vitro using the human DLBCL cell lines SU-DHL-4 and SU-DHL-10, harboring MYC amplification and MYC overexpression with P57T mutation, respectively. Cells were seeded 18 hours prior to treatment for 4 hours with one of three CDK9 inhibitors, enitociclib (0.25 and1 µmol/L), atuveciclib (1 µmol/L) or KB-0742 (1 µmol/L), cells were washed, and incubation continued until 48 hours posttreatment. Samples were collected before treatment (−4), immediately after treatment (0), and at 1, 2, 4, 8, 12, 16, 24, and 48 hours after washout for RNA sequencing (RNA-seq), qPCR, and Western blotting analyses. Total RNA was extracted from blood of patients and cell lines using RNeasy Plus Mini Kit (QIAGEN, #74136) and cDNA prepared with the Maxima First Strand cDNA Synthesis Kit for RT-PCR (Thermo Fisher Scientific, K1642) according to manufacturer's instructions. The integrity of purified total RNA was evaluated using an Agilent 2100 Bioanalyzer system and RNA 6000 Nano Kit (Agilent, #5067-1511). Differential gene expression analysis was performed (Fios Genomics) from RNA-seq data (Discovery Life Sciences). MYC and MCL1 mRNA levels were measured by qPCR in vitro and in vivo, using a Taqman qPCR system (Thermo Fisher Scientific), TaqMan Fast Universal PCR Master Mix (2X) no AmpErase (#4352042) and TaqMan probes for MYC (Hs00153408_m1) and MCL1 (Hs03043899_m1). RNA-seq data were analyzed using DESeq2 ([35]). RNA-seq data generated from the analysis of two cell lines treated with the three CDK9 inhibitors was analyzed to investigate the differences in gene expression levels between various posttreatment timepoints and the pretreatment samples. Quality control assessment and exploratory data analysis by principal component analysis (PCA) were done on raw counts and on normalized count data. Normalization of RNA-seq count data was done using trimmed mean of M-values normalization and transformed with voom, resulting in log2 counts per million with associated precision weights. […] Significance values (Padj) were adjusted for multiple testing, by controlling the FDR using the Benjamini–Hochberg procedure. […] RNA-seq data generated from blood samples taken from patients before and after their first dose (C1D1) or after multiple doses, before and after their third dose (C1D15) were analyzed and normalized using the same pipeline as cell lines for comparisons.

With `COc1cc(F)ccc1-c1cc(Nc2cc(CS(C)(=N)=O)ccn2)ncc1F` (stereo not shown) [enitociclib] the “antitumor efficacy (in words)” value (SU-DHL-10 xenografts; 10 mg/kg i.v. once weekly) was “tumor growth control”, the “treatment/control (T/C) value” (SU-DHL-10 xenografts; 10 mg/kg i.v. once weekly, day 16 after treatment start, P = 0.011) was 0.19 and the “antitumor efficacy (in words)” value (SU-DHL-10 xenografts; 15 mg/kg i.v. once weekly, 3-week treatment period) was “complete regression”. The “treatment/control (T/C) value” (SU-DHL-10 xenografts; 15 mg/kg i.v. once weekly, day 20 after treatment start, P < 0.001) was 0.005, the “tumor growth inhibition reaching, of control” value (SU-DHL-10 xenografts; SU-DHL-10 xenografts) was 0.5 % of control and the PHF23 fold change ([1]; 250 nmol/L, 4 hours, Padj 1.14 e-12) was −12.236. For the same compound, the TP53RK fold change ([1]; 250 nmol/L, 4 hours, Padj 7.76 e-8) was −9.992, the “BTG1 and PIM3 by RNA-seq (in words)” value ([1]; 1 µmol/L, 4 hours) was “statistically significant downregulation” and the “PHF23 and TP53RK by RNA-seq (in words)” value ([1]; 1 µmol/L, 4 hours) was “statistically significantly downregulated”. For the same compound, the “MCL1 mRNA by RNA-seq (in words)” value ([1]; 4 hours treatment, in vitro) was “downregulation is observed but not statistically significant”, the “MYC mRNA by RNA-seq (in words)” value ([1]; 4 hours treatment, in vitro) was “statistically significantly downregulated” and the “ZPF36 by RNA-seq (in words)” value ([1]; 4 hours treatment, in vitro) was “significantly downmodulated”. The “MYC extent of downregulation, fold change” value ([1]; MYC+ DLBCL cell lines, clinically relevant conditions) was −17.108 fold change.
